Earlier results, collected in patent EP4640072A1, “FLEECE MATERIALS TREATED WITH AN ION-PAIRING AGENT AND ORAL PRODUCTS COMPRISING FLEECE MATERIALS TREATED WITH AN ION-PAIRING AGENT” (Nicoventures Trading Limited, priority 2024, dated 2025).

How the values were obtained:
[1] = lipophilicity of the organic acid; values obtained from PubChem or calculated
[2] = system: human buccal tissue; conditions: nicotine solution at pH = 6 relative to nicotine solution at pH 8.1; perfusion cell
[3] = not given; remark: listed apart in the source

| Compound | log(P)* [1] | other results |
| --- | --- | --- |
| COC(=O)/C=C/C(C)=C\C=C\C(C)=C\C=C\C=C(C)\C=C\C=C(C)\C=C\C(=O)O [bixin, (2E,4E,6E,8E,10E,12E,14E,16Z,18E)-20-methoxy-4,8,13,17-tetramethyl-20-oxoicosa-2,4,6,8,10,12,14,16,18-nonaenoic acid] | – | solubility: soluble in fats and alcohols but insoluble in water; chemical stability (when isolated, converts via isomerization into trans-bixin (β-bixin)): chemically unstable when isolated |
| CCCCCCCCCCCC(=O)O [dodecanoic acid] | 4.6 | – |
| CCCCCCCC(=O)O [octanoic acid] | 3.05 | – |
| CN1CCCC1c1cccnc1 (stereo not shown) [nicotine] | – | factor by which the rate of diffusion across human buccal tissue was reduced [2]: ~ 7; log Kα1 ([3]; pyridine ring nitrogen): 3.41; log Ka2 ([3]; pyrrolidine ring nitrogen): 8.02 |
| ethyl benzoic acid | 2.9 | – |
| isopropyl benzoic acid | 3.5 | – |
| O=C(/C=C/c1ccc(O)c(O)c1)O[C@@H](C(=O)O)[C@@H](O)C(=O)O [Caftaric acid] | 1.2 | – |
| CCCCCCCS(=O)(=O)O [1-heptanesulfonic acid] | 2.0 | – |
| CC(/C=C/C=C(C)/C=C/C(=O)O)=C\C=C\C=C(C)\C=C\C=C(C)\C=C\C(=O)O (stereo in doubt) [norbixin, (2E,4E,6E,8E,10E,12E,14E,16E,18E)-4,8,13,17-tetramethylicosa-2,4,6,8,10,12,14,16,18-nonaenedioic acid] | – | solubility: water soluble |
| CC(C)[C@@H]1CC[C@@H](C)C[C@H]1OC(=O)CCC(=O)O [monomenthyl succinate] | 3 | – |
